Measured values published in US9988381B2, “Five-member-heterocycle fused pyridine compounds, method of producing the same, and use thereof” (SHANGHAI INSTITUTE OF MATERIA MEDICA, CHINESE ACADEMY OF …, priority 2013, dated 2018).
Read-outs that look alike come from different tables or passages of the source.

Columns and labels:
[1] = test system: human malignant glioblastoma cell U87MG xenograft; assay: Test V: human malignant glioblastoma U87MG xenograft in nude mice; type: in vivo
Experimental: U87-MG cells were expanded by in vitro culture, cells at log phase were harvested and resuspended in EMEM, adjusted to a cell density of 2.8×10^7/mL, then implanted subcutaneously in the right axilla of nude mice.
During the trial, tumor diameters and animal weights were measured twice a week. Tumor Volume (TV) was calculated by the following equation: TV=1/2×a×b^2, wherein a, b represent length and width, respectively. Based on the measurement, Relative Tumor Volume (RTV) was calculated by the following equation: RTV=Vt/V0, wherein V0 is the tumor volume measured when divided for administration (i.e., d0), Vt is the tumor volume measured at each timepoint.

[2] = target: T1, c-Met kinase domain recombinant protein (Homo sapiens, UniProt P08581); assay: biochemical; conditions: read-out: Inhibition rate at 10 μM (%)
T1 construct: 50 μL diluted solution of c-Met kinase domain recombinant protein in reaction buffer was added to initiate the reaction
Outline: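 Recombinant c-Met kinase domain phosphorylated immobilised Poly(Glu,Tyr)4:1 for 1 h at 37 °C in 50 mM HEPES pH 7.4, 50 mM MgCl2, 0.5 mM MnCl2, 0.2 mM Na3VO4, 1 mM DTT with ATP. Product measured by anti-phosphotyrosine PY99 ELISA (HRP, 490 nm), giving percent inhibition; ATP-free wells served as control.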

BaF3/TPR-Met cell = assay: Test III: growth inhibition of engineered BaF3/TPR-Met cells (MTT); type: cell-based; conditions: Mus musculus, BaF3, 72 h
Experimental: Assays on the growth inhibition of the compounds against engineered BaF3/TPR-Met cell (engineered cell line having TPR-Met fusion protein stably expressed in cytoplasm, persistently activated, Met dependent sensitive cell line; BaF3 cell was purchased from DSMZ, German) were detected using microculture tetrozolium (MTT) staining. A certain amount of BaF3/TPR-Met cells at log phase were inoculated into 96-well culture plate at 90 µL per well, incubated overnight and then 10 μL compound at various concentrations or vehicle control (normal saline) was added, each concentration was tested in triplicate. After incubation with compound for 72 hours, the incubation was terminated, MTT solution (5 mg/mL) was added at 20 μL per well, incubated at 37° C. for 4 hours, then 100 μL triplet solution (10% SDS−5% isobutanol−0.01M HCl) was added, incubated overnight at 37° C., OD value was measured at 570 nm. […] Experiments were conducted in duplicates.

[3] = target: T1, c-Met kinase domain recombinant protein; assay: biochemical
Outline: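 IC50 came from a four-parameter fit of inhibition rates measured by anti-phosphotyrosine (PY99/HRP) ELISA at 490 nm. The reaction ran 1 hour at 37° C with 5 μM ATP, c-Met kinase domain protein and Poly(Glu,Tyr)4:1-coated wells, in HEPES pH 7.4 buffer containing MgCl2, MnCl2, Na3VO4 and DTT.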

[4] = 50 mg/kg po qd/14, end of administration

T1 sequence (P08581 1078-1345 limits assumed): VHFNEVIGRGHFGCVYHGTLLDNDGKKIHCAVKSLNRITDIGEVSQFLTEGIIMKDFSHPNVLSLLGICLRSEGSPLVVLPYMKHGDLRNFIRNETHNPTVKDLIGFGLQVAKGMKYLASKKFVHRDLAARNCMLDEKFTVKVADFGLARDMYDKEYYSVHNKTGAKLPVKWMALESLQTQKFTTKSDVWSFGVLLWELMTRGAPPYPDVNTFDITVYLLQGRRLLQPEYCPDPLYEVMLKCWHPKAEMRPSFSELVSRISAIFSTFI

In the case of `Cn1cc(-c2cnc3cnn(S(=O)(=O)c4cnc5ccccn45)c3c2)cn1` [Compound 19, 1-(imidazo[1,2-a]pyridine-3-sulfonyl)-6-[(1-methyl)-4-pyrazolyl]-1-H-pyrazolo[4,3-b]pyridine], the “state and survival of mice during the administration period” value ([1]; 50 mg/kg daily for 14 days) is reported as “in good state and were survived”, the “antitumor activity (in words)” value ([1]; 50 mg/kg daily, d14) is reported as “favorable antitumor activity” and the “RTV (mean ± SE)” value [1, 4] is reported as 77.0 ± 5.2. For the same compound, the “TV (mm^3, mean ± SE) d21” value [1, 4] was 140 ± 20 mm^3, the “Weight (g) d21” value [1, 4] was 24.5 g and the “GI (%)” value ([1]; 50 mg/kg po qd/14, end of the trial) was 102.41%. For the same compound, the “T/C (%)” value ([1]; 50 mg/kg po qd/14, end of the trial (d14)) was 7.29%, the inhibition at 10 µM [2] was 59.3% and the inhibition at 0.2 µM (BaF3/TPR-Met cell; read-out: Cell proliferation inhibition rate at 200 nM (%)) was 91.8%. For the same compound, the inhibition at 1 µM (BaF3/TPR-Met cell; read-out: Cell proliferation inhibition rate at 1 μM (%)) was 95.6%, the IC50 [3] was 7.8 ± 0.8 nM and the inhibition at 0.1 µM ([3]; read-out: Average inhibition rate at 0.1 μM (%)) was 59.2%. The inhibition at 1 µM ([3]; read-out: Average inhibition rate at 1 μM (%)) was 53.5% and the inhibition at 10 µM ([3]; read-out: Average inhibition rate at 10 μM (%)) was 59.3%.
